Patent US12336981B2, “Compounds and compositions for the inhibition of NAMPT” (Valo Health, Inc., priority 2010, dated 2025)

Assays:
NAMPT = biological target: T1, NAMPT (Homo sapiens, UniProt P43490); experiment: Biochemical inhibition assay: NAMPT enzymatic reaction, NMN quantified by mass spectrometry; settings: NAMPT enzymatic reaction; read-out: Biochem IC50
T1 construct: His tag; host or cells: E. coli
Method in brief: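 Inhibition of E. coli-expressed His-tagged human NAMPT, measured as NMN formation by mass spectrometry after a 30 min room-temperature reaction containing 1 μM NAM, 100 μM PRPP and 2.5 mM ATP.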

A2780 cells = experiment: In-vitro cell proliferation assay (SRB), A2780 cells; format: cell-based; settings: Homo sapiens, A2780, 72 h, A2780 cells, 72 hours, SRB; read-out: A2780 IC50
Method in brief: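 Read-out is SRB absorbance at 570 nm on TCA-fixed cells after 72 hours of compound treatment at 37° C. in 5% CO2. Background from a media-only plate is subtracted, and % inhibition is interpolated between two tested concentrations.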

T1 sequence (P43490 whole entry): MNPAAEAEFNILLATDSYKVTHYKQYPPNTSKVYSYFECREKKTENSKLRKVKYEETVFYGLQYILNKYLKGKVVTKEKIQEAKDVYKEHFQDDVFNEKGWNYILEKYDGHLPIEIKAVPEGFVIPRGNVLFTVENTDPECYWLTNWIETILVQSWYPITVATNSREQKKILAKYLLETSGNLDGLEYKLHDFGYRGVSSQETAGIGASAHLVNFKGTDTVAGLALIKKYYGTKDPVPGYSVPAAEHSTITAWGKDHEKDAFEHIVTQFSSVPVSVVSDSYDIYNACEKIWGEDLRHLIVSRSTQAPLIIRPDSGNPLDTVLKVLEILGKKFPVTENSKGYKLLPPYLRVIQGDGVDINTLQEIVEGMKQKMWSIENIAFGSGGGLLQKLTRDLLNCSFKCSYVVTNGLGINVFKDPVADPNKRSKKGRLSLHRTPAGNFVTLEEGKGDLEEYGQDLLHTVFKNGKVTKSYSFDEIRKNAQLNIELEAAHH

CCCOc1ccc(S(=O)(=O)c2ccc(CNC(=O)c3cc4ccncc4s3)cc2)cc1F
IC50 (NAMPT): 3.7 nM | IC50 (A2780 cells): 8.1 nM

COc1c(Cl)ccc(S(=O)(=O)c2ccc(CNC(=O)c3cc4ccncc4s3)cc2)c1Cl
IC50 (NAMPT): 5.1 nM | IC50 (A2780 cells): 6.7 nM

COc1c(Cl)ccc(S(=O)(=O)c2ccc(CNC(=O)c3ccc4nccn4c3)cc2)c1Cl
IC50 (NAMPT): 31.1 nM | IC50 (A2780 cells): 13 nM

COc1c(Cl)ccc(S(=O)(=O)c2ccc(CNC(=O)c3cc4ccncc4o3)cc2)c1Cl
IC50 (NAMPT): 17.7 nM | IC50 (A2780 cells): 16.2 nM

COc1c(Cl)ccc(S(=O)(=O)c2ccc(CNC(=O)c3cnc4nccn4c3)cc2)c1Cl
IC50 (NAMPT): 6.6 nM | IC50 (A2780 cells): 25.5 nM

COc1ccc(S(=O)(=O)c2ccc(CNC(=O)c3cnc4[nH]ncc4c3)cc2)c(OC)c1
IC50 (NAMPT): 174 nM | IC50 (A2780 cells): 44.7 nM

Cc1cc(C)c(S(=O)(=O)c2ccc(CNC(=O)c3cnc4nccn4c3)cc2)c(C)c1
IC50 (NAMPT): 28.8 nM | IC50 (A2780 cells): 100 to 1000 nM

COc1c(F)cccc1S(=O)(=O)c1ccc(CNC(=O)c2cc3cnccc3[nH]2)cc1
IC50 (NAMPT): 32.4 nM | IC50 (A2780 cells): 6.3 nM

COc1c(F)cccc1S(=O)(=O)c1ccc(CNC(=O)c2cnc3nccn3c2)cc1
IC50 (NAMPT): 28.9 nM | IC50 (A2780 cells): 100 to 1000 nM

COc1c(F)cccc1S(=O)(=O)c1ccc(CNC(=O)c2cc3ccncc3s2)cc1
IC50 (NAMPT): 13.3 nM | IC50 (A2780 cells): 12.5 nM

COc1c(F)cccc1S(=O)(=O)c1ccc(CNC(=O)c2cc3ccncc3o2)cc1
IC50 (NAMPT): 16.6 nM | IC50 (A2780 cells): 30.9 nM

Cc1c(F)cccc1S(=O)(=O)c1ccc(CNC(=O)c2cc3cnccc3[nH]2)cc1
IC50 (NAMPT): 57.6 nM | IC50 (A2780 cells): 13.2 nM

Cc1c(F)cccc1S(=O)(=O)c1ccc(CNC(=O)c2cnc3nccn3c2)cc1
IC50 (NAMPT): 8.1 nM | IC50 (A2780 cells): 65.6 nM

Cc1c(F)cccc1S(=O)(=O)c1ccc(CNC(=O)c2cc3ccncc3o2)cc1
IC50 (NAMPT): 13.2 nM | IC50 (A2780 cells): 30.7 nM

Cc1c(F)cccc1S(=O)(=O)c1ccc(CNC(=O)c2ccc3nccn3c2)cc1
IC50 (NAMPT): 46.9 nM | IC50 (A2780 cells): 13.2 nM

COc1ccc(S(=O)(=O)c2ccc(CNC(=O)c3cc4ccncc4o3)cc2)cc1F
IC50 (NAMPT): 2.2 nM | IC50 (A2780 cells): 6.8 nM

Cc1ccc(S(=O)(=O)c2ccc(CNC(=O)c3cnc4[nH]ncc4c3)cc2)cc1F
IC50 (NAMPT): 11.7 nM | IC50 (A2780 cells): 5.6 nM

Cc1ccc(S(=O)(=O)c2ccc(CNC(=O)c3cc4ccncc4o3)cc2)cc1F
IC50 (NAMPT): 14 nM | IC50 (A2780 cells): 3.3 nM

Cc1ccc(S(=O)(=O)c2ccc(CNC(=O)c3cnc4nccn4c3)cc2)cc1F
IC50 (NAMPT): 2.3 nM | IC50 (A2780 cells): 6.3 nM

CCCOc1ccc(S(=O)(=O)c2ccc(CNC(=O)c3cnc4nccn4c3)cc2)cc1F
IC50 (NAMPT): 2.7 nM | IC50 (A2780 cells): 3.3 nM

CCCOc1ccc(S(=O)(=O)c2ccc(CNC(=O)c3cc4cnccc4[nH]3)cc2)cc1F
IC50 (NAMPT): 30.9 nM | IC50 (A2780 cells): 10.4 nM

CCCOc1ccc(S(=O)(=O)c2ccc(CNC(=O)c3ccc4nccn4c3)cc2)cc1F
IC50 (NAMPT): 22.1 nM | IC50 (A2780 cells): 4.4 nM

CCCOc1ccc(S(=O)(=O)c2ccc(CNC(=O)c3cc4ccncc4o3)cc2)cc1F
IC50 (NAMPT): 6.8 nM | IC50 (A2780 cells): 11.8 nM

COc1cc(F)cc(S(=O)(=O)c2ccc(CNC(=O)c3cnc4[nH]ncc4c3)cc2)c1
IC50 (NAMPT): 4.4 nM | IC50 (A2780 cells): 6.3 nM

COc1cc(F)cc(S(=O)(=O)c2ccc(CNC(=O)c3cnc4nccn4c3)cc2)c1
IC50 (NAMPT): 1.6 nM | IC50 (A2780 cells): 3.3 nM

Cc1cc(F)cc(S(=O)(=O)c2ccc(CNC(=O)c3cc4ccncc4s3)cc2)c1
IC50 (NAMPT): 1 nM | IC50 (A2780 cells): 0.6 nM

Cc1cc(F)cc(S(=O)(=O)c2ccc(CNC(=O)c3cnc4[nH]ncc4c3)cc2)c1
IC50 (NAMPT): 9.5 nM | IC50 (A2780 cells): 5.6 nM

Cc1cc(F)cc(S(=O)(=O)c2ccc(CNC(=O)c3cc4cnccc4[nH]3)cc2)c1
IC50 (NAMPT): 8.3 nM | IC50 (A2780 cells): 1.8 nM

Cc1cc(F)cc(S(=O)(=O)c2ccc(CNC(=O)c3cnc4nccn4c3)cc2)c1
IC50 (NAMPT): 1.5 nM | IC50 (A2780 cells): 5.4 nM

O=C(NCc1ccc(S(=O)(=O)c2cccc(F)c2)cc1)c1cnc2[nH]ncc2c1
IC50 (NAMPT): 33.9 nM | IC50 (A2780 cells): 25.3 nM

O=C(NCc1ccc(S(=O)(=O)c2cccc(F)c2)cc1)c1cnc2nccn2c1
IC50 (NAMPT): 1.9 nM | IC50 (A2780 cells): 22.1 nM

O=C(NCc1ccc(S(=O)(=O)c2cccc(O)c2)cc1)c1ccc2nccn2c1
IC50 (NAMPT): 5 nM | IC50 (A2780 cells): 7 nM

CS(=O)(=O)c1cccc(S(=O)(=O)c2ccc(CNC(=O)c3cc4ccncc4s3)cc2)c1
IC50 (NAMPT): 1.7 nM | IC50 (A2780 cells): 3.5 nM

CS(=O)(=O)c1cccc(S(=O)(=O)c2ccc(CNC(=O)c3ccc4nccn4c3)cc2)c1
IC50 (NAMPT): 25.6 nM | IC50 (A2780 cells): 16 nM

CS(=O)(=O)c1cccc(S(=O)(=O)c2ccc(CNC(=O)c3cc4ccncc4o3)cc2)c1
IC50 (NAMPT): 6 nM | IC50 (A2780 cells): 6.8 nM

COc1cc(S(=O)(=O)c2ccc(CNC(=O)c3cc4cnccc4[nH]3)cc2)ccc1C
IC50 (NAMPT): 7.9 nM | IC50 (A2780 cells): 3 nM

COc1cc(S(=O)(=O)c2ccc(CNC(=O)c3cc4ccncc4s3)cc2)ccc1C
IC50 (NAMPT): 2.7 nM | IC50 (A2780 cells): 1.5 nM
